The text below walks through data of paper PMC5382265, “Macrocycle peptides delineate locked-open inhibition mechanism for microorganism phosphoglycerate mutases” (Nature Communications, 2017).

Structures are written as SMILES. Like-named read-outs stand apart in the source and are kept apart here. Positions of bridges follow the written chain, without caps; N, C: chain ends. Non-standard residues stand in square brackets, D forms with d. Residues, ends and D or L forms follow the SMILES beside them.

In general, IC50 refers to the concentration that gives 50% inhibition.

For one test, the target named is O. volvulus iPGM (Onchocerca volvulus, UniProt I6LDA6). The experiment in a line: biochemical.
Chain of O. volvulus iPGM (I6LDA6 whole entry, looked up): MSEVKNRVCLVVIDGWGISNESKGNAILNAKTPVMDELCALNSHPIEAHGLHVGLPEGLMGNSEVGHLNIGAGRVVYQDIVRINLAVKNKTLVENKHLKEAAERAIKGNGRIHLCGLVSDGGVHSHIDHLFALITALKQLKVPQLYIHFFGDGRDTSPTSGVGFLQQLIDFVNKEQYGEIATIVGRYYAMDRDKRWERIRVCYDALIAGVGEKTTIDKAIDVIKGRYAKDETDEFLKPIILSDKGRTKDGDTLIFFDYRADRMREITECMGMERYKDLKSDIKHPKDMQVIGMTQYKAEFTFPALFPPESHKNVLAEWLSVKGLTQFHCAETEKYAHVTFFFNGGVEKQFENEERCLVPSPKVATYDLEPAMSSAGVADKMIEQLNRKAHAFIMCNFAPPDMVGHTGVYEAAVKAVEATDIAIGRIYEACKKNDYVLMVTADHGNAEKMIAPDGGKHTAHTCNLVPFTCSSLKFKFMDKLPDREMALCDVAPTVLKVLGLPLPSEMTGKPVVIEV
The target in a further test is T1, C. elegans iPGM (Caenorhabditis elegans, UniProt G5EFZ1).
T1 sequence (G5EFZ1 1-539): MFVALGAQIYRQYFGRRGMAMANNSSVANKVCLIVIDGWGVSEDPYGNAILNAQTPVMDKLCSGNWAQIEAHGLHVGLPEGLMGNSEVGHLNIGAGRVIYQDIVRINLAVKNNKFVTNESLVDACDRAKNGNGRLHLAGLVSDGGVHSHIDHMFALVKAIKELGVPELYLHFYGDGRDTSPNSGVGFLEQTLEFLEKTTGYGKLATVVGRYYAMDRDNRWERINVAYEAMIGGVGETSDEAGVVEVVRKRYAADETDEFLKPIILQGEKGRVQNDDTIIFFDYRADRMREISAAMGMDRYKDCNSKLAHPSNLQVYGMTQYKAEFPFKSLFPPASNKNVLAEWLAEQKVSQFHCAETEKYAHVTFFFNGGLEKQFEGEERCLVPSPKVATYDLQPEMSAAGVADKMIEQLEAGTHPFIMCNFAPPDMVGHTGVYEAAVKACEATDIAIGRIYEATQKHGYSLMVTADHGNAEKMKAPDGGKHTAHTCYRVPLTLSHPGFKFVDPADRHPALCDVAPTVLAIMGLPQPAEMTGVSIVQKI
The experiment in a line: PGM enzyme-coupled bioluminescent end point assay (Kinase-Glo Plus). In kind it is biochemical.

The next test deals with E. coli iPGM (Escherichia coli, UniProt P37689). Nature of the test: biochemical.
Chain of E. coli iPGM (P37689 whole entry, looked up): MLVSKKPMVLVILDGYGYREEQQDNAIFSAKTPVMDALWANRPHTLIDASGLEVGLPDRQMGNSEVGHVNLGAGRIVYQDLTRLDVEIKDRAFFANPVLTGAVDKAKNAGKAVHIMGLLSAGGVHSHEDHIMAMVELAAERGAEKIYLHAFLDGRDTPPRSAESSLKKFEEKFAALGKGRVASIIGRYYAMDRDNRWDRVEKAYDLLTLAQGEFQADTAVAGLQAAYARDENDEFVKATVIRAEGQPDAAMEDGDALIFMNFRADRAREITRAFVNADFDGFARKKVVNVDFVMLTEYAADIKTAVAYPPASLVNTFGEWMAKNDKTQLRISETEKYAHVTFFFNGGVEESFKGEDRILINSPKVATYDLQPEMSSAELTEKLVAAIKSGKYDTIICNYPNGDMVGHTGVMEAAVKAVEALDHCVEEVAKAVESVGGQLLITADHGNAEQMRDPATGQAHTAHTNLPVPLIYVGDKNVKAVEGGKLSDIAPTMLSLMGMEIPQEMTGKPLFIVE
The target in the next test is B. malayi iPGM (Brugia malayi, UniProt Q4VWF8). Nature of the test: biochemical.
Chain of B. malayi iPGM (Q4VWF8 whole entry, looked up): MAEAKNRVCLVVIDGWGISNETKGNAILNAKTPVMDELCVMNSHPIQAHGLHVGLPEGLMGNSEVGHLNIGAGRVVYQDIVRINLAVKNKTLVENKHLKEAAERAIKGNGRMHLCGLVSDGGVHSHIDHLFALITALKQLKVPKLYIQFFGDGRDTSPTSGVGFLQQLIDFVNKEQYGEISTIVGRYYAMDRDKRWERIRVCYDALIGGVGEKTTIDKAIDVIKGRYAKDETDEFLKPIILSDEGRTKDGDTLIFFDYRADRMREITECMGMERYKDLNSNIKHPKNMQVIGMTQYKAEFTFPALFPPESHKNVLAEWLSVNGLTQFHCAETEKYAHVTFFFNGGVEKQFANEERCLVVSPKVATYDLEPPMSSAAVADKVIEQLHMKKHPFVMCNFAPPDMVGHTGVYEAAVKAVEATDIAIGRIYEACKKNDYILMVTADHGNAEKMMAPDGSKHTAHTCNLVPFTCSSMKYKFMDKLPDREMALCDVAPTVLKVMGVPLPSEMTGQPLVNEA
Where [1] appears, read: pIC50, apparent O. volvulus iPGM.
The mark [2] stands for this setting: pIC50, apparent C. elegans iPGM.

Consider `CC[C@H](C)[C@@H]1NC(=O)[C@H](CCC(=O)O)NC(=O)[C@@H]2CCCN2C(=O)[C@H](C)NC(=O)[C@H](CC(N)=O)NC(=O)[C@@H]2CCCN2C(=O)[C@H](Cc2c[nH]c3ccccc23)NC(=O)[C@H](CO)NC(=O)[C@@H](Cc2ccc(O)cc2)NC(=O)CSC[C@@H](C(=O)N[C@@H](CS)C(=O)NCC(N)=O)NC(=O)[C@H](CCCCN)NC(=O)[C@H](Cc2c[nH]c3ccccc23)NC1=O` [Bm-1] ({CH2CO}-[dY]SWPNAPEIWKCCG-NH2; thioether N-12), for which the IC50 was 1320 nM on O. volvulus iPGM (setting [1]); 5010 nM at C. elegans iPGM (setting [2]); 4900 nM at E. coli iPGM (pIC50, apparent E. coli iPGM); 1290 nM on B. malayi iPGM (pIC50, apparent B. malayi iPGM).
On to `CC[C@H](C)[C@@H]1NC(=O)[C@H](CCCNC(=N)N)NC(=O)[C@H](Cc2ccccc2)NC(=O)[C@@H]2CCCN2C(=O)[C@H](CC(N)=O)NC(=O)[C@H](C)NC(=O)[C@H](CC(C)C)NC(=O)[C@H]([C@@H](C)O)NC(=O)[C@H]([C@@H](C)CC)NC(=O)[C@H](Cc2ccc(O)cc2)NC(=O)CSC[C@@H](C(=O)NCC(N)=O)NC(=O)[C@H](Cc2c[nH]cn2)NC(=O)[C@H](CC(C)C)NC1=O` [Ce-3] ({CH2CO}-YITLANPFRILHCG-NH2; thioether N-13), for which the half-maximal inhibitory concentration (IC50) is 5500 nM against O. volvulus iPGM (pIC50, M O. volvulus iPGM); 468 nM at C. elegans iPGM; 537 nM on E. coli iPGM (pIC50, apparent E. coli iPGM).
Take `CC(C)C[C@H](NC(=O)[C@H](Cc1ccc(O)cc1)NC(=O)[C@@H]1CSCC(=O)N[C@H](Cc2ccc(O)cc2)C(=O)N[C@@H](CC(=O)O)C(=O)N[C@@H](Cc2ccc(O)cc2)C(=O)N2CCC[C@H]2C(=O)NCC(=O)N[C@@H](CC(=O)O)C(=O)N[C@@H](Cc2ccc(O)cc2)C(=O)N1)C(=O)N[C@@H](Cc1ccc(O)cc1)C(=O)NCC(=O)N[C@H](C(N)=O)[C@@H](C)O` [Ce-2b]: the IC50 is 2450 nM against O. volvulus iPGM (pIC50 O. volvulus iPGM), 15.8 nM at C. elegans iPGM (pIC50 C. elegans iPGM), 10.5 nM against E. coli iPGM (pIC50 E. coli iPGM) and 692 nM against B. malayi iPGM (pIC50 B. malayi iPGM).
As for `CC(=O)N[C@H](Cc1ccc(O)cc1)C(=O)N[C@@H](CC(=O)O)C(=O)N[C@@H](Cc1ccc(O)cc1)C(=O)N1CCC[C@H]1C(=O)NCC(=O)N[C@@H](CC(=O)O)C(=O)N[C@@H](Cc1ccc(O)cc1)C(=O)N[C@@H](CO)C(=O)N[C@@H](Cc1ccc(O)cc1)C(=O)N[C@@H](CC(C)C)C(=O)N[C@@H](Cc1ccc(O)cc1)C(=O)NCC(=O)N[C@H](C(=O)N[C@@H](CS)C(=O)NCC(N)=O)[C@@H](C)O` [Ce-L2] (Ac-[dY]DYPGDYSYLYGTCG-NH2), the IC50 at C. elegans iPGM (pIC50 C. elegans iPGM) was 1150 nM; on E. coli iPGM (pIC50 E. coli iPGM) it was 1320 nM; on B. malayi iPGM (pIC50 B. malayi iPGM) it was 12900 nM.
On to `CC(C)C[C@H](NC(=O)[C@H](Cc1ccc(O)cc1)NC(=O)[C@@H]1CSCC(=O)N[C@H](Cc2ccc(O)cc2)C(=O)N[C@@H](CC(=O)O)C(=O)N[C@@H](Cc2ccc(O)cc2)C(=O)N2CCC[C@H]2C(=O)NCC(=O)N[C@@H](CC(=O)O)C(=O)N[C@@H](Cc2c[nH]cn2)C(=O)N1)C(=O)N[C@@H](Cc1ccc(O)cc1)C(=O)NCC(=O)N[C@H](C(=O)N[C@@H](CS)C(=O)NCC(N)=O)[C@@H](C)O` [Ce-1], for which the IC50 against O. volvulus iPGM (pIC50, M O. volvulus iPGM) is 24.5 nM; on C. elegans iPGM (setting [2]), 3.98 nM; at E. coli iPGM (pIC50, apparent E. coli iPGM), 4.17 nM; at B. malayi iPGM (pIC50, apparent B. malayi iPGM), 12 nM.
As to `CC[C@H](C)[C@@H]1NC(=O)[C@H](CCCNC(=N)N)NC(=O)[C@H](Cc2ccccc2)NC(=O)[C@@H]2CCCN2C(=O)[C@H](CC(N)=O)NC(=O)[C@H](C)NC(=O)[C@H](CC(C)C)NC(=O)[C@H]([C@@H](C)O)NC(=O)[C@H]([C@@H](C)O)NC(=O)[C@H](Cc2ccc(O)cc2)NC(=O)CSC[C@@H](C(=O)NCC(N)=O)NC(=O)[C@H](Cc2c[nH]cn2)NC(=O)[C@H](CC(C)C)NC1=O` [Ce-4] ({CH2CO}-YTTLANPFRILHCG-NH2; thioether N-13), the IC50 on O. volvulus iPGM (pIC50, M O. volvulus iPGM) was 4270 nM; at C. elegans iPGM, 6030 nM.
With `CC(C)C[C@H](NC(=O)[C@H](Cc1ccc(O)cc1)NC(=O)[C@@H]1CSCC(=O)N[C@H](Cc2ccc(O)cc2)C(=O)N[C@@H](CC(=O)O)C(=O)N[C@@H](Cc2ccc(O)cc2)C(=O)N2CCC[C@H]2C(=O)NCC(=O)N[C@@H](CC(=O)O)C(=O)N[C@@H](Cc2ccc(O)cc2)C(=O)N1)C(=O)N[C@@H](Cc1ccc(O)cc1)C(=O)NCC(N)=O` [Ce-2c], the IC50 was 3890 nM on O. volvulus iPGM (pIC50 O. volvulus iPGM), 22.9 nM at C. elegans iPGM (pIC50 C. elegans iPGM), 10.5 nM at E. coli iPGM (pIC50 E. coli iPGM) and 1170 nM against B. malayi iPGM (pIC50 B. malayi iPGM).
With `CC(C)C[C@H](NC(=O)[C@H](Cc1ccc(O)cc1)NC(=O)[C@@H]1CSCC(=O)N[C@H](Cc2ccc(O)cc2)C(=O)N[C@@H](CC(=O)O)C(=O)N[C@@H](Cc2ccc(O)cc2)C(=O)N2CCC[C@H]2C(=O)NCC(=O)N[C@@H](CC(=O)O)C(=O)N[C@@H](Cc2ccc(O)cc2)C(=O)N1)C(=O)N[C@@H](Cc1ccc(O)cc1)C(=O)NCC(=O)N[C@H](C(=O)N[C@@H](CO)C(=O)NCC(N)=O)[C@@H](C)O` [Ce-2S], the IC50 against O. volvulus iPGM (pIC50, M O. volvulus iPGM) is 447 nM; against O. volvulus iPGM (pIC50 O. volvulus iPGM) it was 1020 nM; at C. elegans iPGM it was roughly 10 nM; on C. elegans iPGM (pIC50, M C. elegans iPGM), 12 nM; on C. elegans iPGM (pIC50 C. elegans iPGM), 8.32 nM; on E. coli iPGM (IC50) it was roughly 10 nM. The IC50 on E. coli iPGM (pIC50 E. coli iPGM) was 10 nM; at B. malayi iPGM (pIC50, M B. malayi iPGM), 407 nM; against B. malayi iPGM (pIC50 B. malayi iPGM), 525 nM.
With `CC[C@H](C)[C@@H]1NC(=O)[C@H](CO)NC(=O)[C@H](CCCNC(=N)N)NC(=O)[C@H](CC(N)=O)NC(=O)[C@H](CCC(N)=O)NC(=O)[C@@H](Cc2ccc(O)cc2)NC(=O)CSC[C@@H](C(=O)NCC(N)=O)NC(=O)[C@H](CS)NC(=O)CNC(=O)[C@H](Cc2ccc(O)cc2)NC(=O)[C@H](CC(C)C)NC(=O)[C@H](Cc2c[nH]c3ccccc23)NC1=O` [Bm-3] ({CH2CO}-[dY]QNRSIWLYGCCG-NH2; thioether N-12), the “pIC50, apparent C. elegans iPGM” value at C. elegans iPGM is given as 5.05. Further, the “pIC50, apparent E. coli iPGM” value on E. coli iPGM is reported as 5.03.
Regarding `CC(C)C[C@H](NC(=O)[C@H](Cc1ccc(O)cc1)NC(=O)[C@@H]1CSCC(=O)N[C@H](Cc2ccc(O)cc2)C(=O)N[C@@H](CC(=O)O)C(=O)N[C@@H](Cc2ccc(O)cc2)C(=O)N2CCC[C@H]2C(=O)NCC(=O)N[C@@H](CC(=O)O)C(=O)N[C@@H](Cc2ccc(O)cc2)C(=O)N1)C(=O)N[C@@H](Cc1ccc(O)cc1)C(=O)NCC(=O)N[C@H](C(=O)N[C@@H](CS)C(N)=O)[C@@H](C)O` [Ce-2a], the IC50 is 49 nM against O. volvulus iPGM (pIC50, M O. volvulus iPGM); 0.209 nM on O. volvulus iPGM (pIC50 O. volvulus iPGM); 4.07 nM at C. elegans iPGM (pIC50, M C. elegans iPGM); 0.174 nM at C. elegans iPGM (pIC50 C. elegans iPGM); 3.09 nM at E. coli iPGM (pIC50, M E. coli iPGM); 0.263 nM against E. coli iPGM (pIC50 E. coli iPGM). For the same compound, the IC50 against B. malayi iPGM (pIC50, M B. malayi iPGM) was 8.51 nM; against B. malayi iPGM (pIC50 B. malayi iPGM), 0.324 nM.
Consider `CC(C)[C@@H]1NC(=O)[C@H](C)NC(=O)[C@@H](Cc2ccc(O)cc2)NC(=O)CSC[C@@H](C(=O)N[C@@H](CCCNC(=N)N)C(=O)N[C@H](C(=O)N[C@@H](CS)C(=O)NCC(N)=O)[C@@H](C)O)NC(=O)[C@H](CC(N)=O)NC(=O)[C@@H]2CCCN2C(=O)[C@H](Cc2c[nH]c3ccccc23)NC1=O` [Bm-7] ({CH2CO}-[dY]AVWPNCRTCG-NH2; thioether N-7), for which the IC50 on O. volvulus iPGM (setting [1]) is 4270 nM; at C. elegans iPGM (setting [2]), 7410 nM; at E. coli iPGM (pIC50, apparent E. coli iPGM), 7590 nM; at B. malayi iPGM (pIC50, apparent B. malayi iPGM) it was 5250 nM.
For the compound `NC(=O)[C@H](Cc1ccc(O)cc1)NC(=O)[C@@H]1CSCC(=O)N[C@H](Cc2ccc(O)cc2)C(=O)N[C@@H](CC(=O)O)C(=O)N[C@@H](Cc2ccc(O)cc2)C(=O)N2CCC[C@H]2C(=O)NCC(=O)N[C@@H](CC(=O)O)C(=O)N[C@@H](Cc2ccc(O)cc2)C(=O)N1` [Ce-2f] ({CH2CO}-[dY]DYPGDYCY-NH2; thioether N-8), the IC50 on C. elegans iPGM (pIC50 C. elegans iPGM) is 51300 nM; on E. coli iPGM (pIC50 E. coli iPGM), 25700 nM.
